Assay results: ChEMBL document CHEMBL2029220, “Oxaphosphinanes: new therapeutic perspectives for glioblastoma” (J Med Chem, 2012)
pEC50: −log10 of the molar value. The source made the active and inactive calls. The calls are words filed in the database; no cut-off is given here.

Legend:
[1] = tested on: C6; experiment: Antiproliferative activity against rat C6 cells after 48 hrs by MTT assay; format: functional, cell-based; settings: C6, 48 h
[2] = Cytotoxicity against mouse astrocytes assessed as decrease in cell viability at 0.1 uM after 48 hrs by neutral red incorporation assay; format: cell-based; settings: astrocyte
[3] = Cytotoxicity against mouse astrocytes assessed as decrease in cell viability at 1 to 10 uM after 48 hrs by neutral red incorporation assay; format: cell-based; settings: astrocyte
[4] = Cytotoxicity against mouse astrocytes assessed as decrease in cell viability at 1 to 10 uM after 48 hrs by propidium iodide incorporation assay; format: cell-based; settings: astrocyte
[5] = Cytotoxicity against mouse astrocytes assessed as decrease in cell viability at 0.1 uM after 48 hrs by Hoechst 33342 staining; format: cell-based; settings: astrocyte
[6] = Cytotoxicity against mouse astrocytes assessed as decrease in cell viability at 0.1 uM after 48 hrs by propidium iodide incorporation assay; format: cell-based; settings: astrocyte
[7] = tested on: C6; experiment: Antiproliferative activity against rat C6 cells at 0.1 to 10 uM after 48 hrs by neutral red incorporation assay; format: functional, cell-based
[8] = Cytotoxicity against mouse astrocytes assessed as decrease in cell viability at 1 to 100 uM after 48 hrs by Hoechst 33342 staining; format: cell-based; settings: astrocyte
[9] = tested on: SF-295; experiment: Antiproliferative activity against human SF295 cells at 10 uM after 24 hrs by SRB assay; format: functional, cell-based
[10] = tested on: SNB-75; experiment: Antiproliferative activity against human SNB75 cells at 10 uM after 24 hrs by SRB assay; format: functional, cell-based
[11] = tested on: C6; experiment: Antiproliferative activity against rat C6 cells at 100 uM after 48 hrs by neutral red incorporation assay; format: functional, cell-based
[12] = Cytotoxicity against mouse astrocytes assessed as decrease in cell viability at 1 to 100 uM after 48 hrs by propidium iodide incorporation assay; format: cell-based; settings: astrocyte
[13] = Cytotoxicity against mouse astrocytes assessed as decrease in cell viability at 1 to 100 uM after 48 hrs by neutral red incorporation assay; format: cell-based; settings: astrocyte
[14] = Cytotoxicity against mouse astrocytes assessed as decrease in cell viability at 10 uM after 48 hrs by neutral red incorporation assay; format: cell-based; settings: astrocyte
[15] = Cytotoxicity against mouse astrocytes assessed as decrease in cell viability after 48 hrs by propidium iodide incorporation assay; format: cell-based; settings: astrocyte
[16] = Cytotoxicity against mouse astrocytes assessed as decrease in cell viability after 48 hrs by Hoechst 33342 staining; format: cell-based; settings: astrocyte

| Compound | pEC50 [1] | other results |
| --- | --- | --- |
| CSC(=S)O[C@H]1[C@@H](OCc2ccccc2)[C@H](OCc2ccccc2)[C@@H](COCc2ccccc2)O[P@@]1(=O)c1ccccc1 | < 4.60 | – |
| O=[P@]1(c2cccc(F)c2)O[C@H](COCc2ccccc2)[C@@H](OCc2ccccc2)[C@H](OCc2ccccc2)[C@@H]1O | < 4.60 | – |
| N[C@@H]1[C@@H](OCc2ccccc2)[C@H](OCc2ccccc2)[C@@H](COCc2ccccc2)O[P@@]1(=O)c1ccccc1 | 4.79 | – |
| O=[P@]1(c2cccc(F)c2)O[C@H](COCc2ccccc2)[C@@H](OCc2ccccc2)[C@H](OCc2ccccc2)[C@H]1O | < 4.60 | – |
| COc1ccc([P@]2(=O)O[C@H](COCc3ccccc3)[C@@H](OCc3ccccc3)[C@H](OCc3ccccc3)[C@H]2O)cc1 | 5.08 | – |
| COc1cccc([P@@]2(=O)O[C@H](COCc3ccccc3)[C@@H](OCc3ccccc3)[C@H](OCc3ccccc3)[C@@H]2O)c1 | < 4.60 | – |
| CC[C@]1(O)C[C@H]2CN(CCc3c([nH]c4ccccc34)[C@@](C(=O)OC)(c3cc4c(cc3OC)N(C=O)[C@H]3[C@@](O)(C(=O)OC)[C@H](OC(C)=O)[C@]5(CC)C=CCN6CC[C@]43[C@@H]65)C2)C1 [VINCRISTINE] | – | Activity [2]: Toxic; Activity [3]: 60%; Activity [4]: Toxic; Activity [5]: Toxic; Activity [6]: Toxic; Activity [7]: Active |
| O=[P@]1(c2ccccc2)O[C@H](COCc2ccccc2)[C@@H](OCc2ccccc2)[C@H](OCc2ccccc2)[C@@H]1O (single isomer, unassigned) | 4.92 | – |
| O=[P@@]1(c2cccc(F)c2)O[C@H](COCc2ccccc2)[C@@H](OCc2ccccc2)[C@H](OCc2ccccc2)[C@@H]1O | < 4.60 | – |
| COc1ccc([P@@]2(=O)O[C@H](COCc3ccccc3)[C@@H](OCc3ccccc3)[C@H](OCc3ccccc3)[C@H]2O)cc1 | 4.82 | – |
| Cc1cccc([P@]2(=O)O[C@H](COCc3ccccc3)[C@@H](OCc3ccccc3)[C@H](OCc3ccccc3)[C@@H]2O)c1 | < 4.60 | – |
| C=CCN[C@@H]1[C@@H](OCc2ccccc2)[C@H](OCc2ccccc2)[C@@H](COCc2ccccc2)O[P@@]1(=O)c1ccccc1 | 6.31 | – |
| COc1cccc([P@@]2(=O)O[C@H](COCc3ccccc3)[C@@H](OCc3ccccc3)[C@H](OCc3ccccc3)[C@H]2O)c1 | < 4.60 | – |
| Cn1nnc2c(C(N)=O)ncn2c1=O [TEMOZOLOMIDE] | – | Activity [8]: Non-toxic; growth inhibition (GI) [9]: Active; growth inhibition (GI) [10]: Active; Activity [11]: Active; Activity [12]: Non-toxic; Activity [13]: Non-toxic |
| O=[P@]1(c2ccccc2)O[C@H](COCc2ccccc2)[C@@H](OCc2ccccc2)[C@H](OCc2ccccc2)[C@H]1O | 4.92 | – |
| Cc1cccc([P@]2(=O)O[C@H](COCc3ccccc3)[C@@H](OCc3ccccc3)[C@H](OCc3ccccc3)[C@H]2O)c1 | < 4.60 | – |
| O=C(O[C@@H]1[C@@H](OCc2ccccc2)[C@H](OCc2ccccc2)[C@@H](COCc2ccccc2)O[P@@]1(=O)c1ccccc1)C(F)(F)F | < 4.60 | – |
| [N-]=[N+]=N[C@@H]1[C@@H](OCc2ccccc2)[C@H](OCc2ccccc2)[C@@H](COCc2ccccc2)O[P@@]1(=O)c1ccccc1 | 4.78 | – |
| O=C(Nc1ccccc1)N[C@@H]1[C@@H](OCc2ccccc2)[C@H](OCc2ccccc2)[C@@H](COCc2ccccc2)O[P@@]1(=O)c1ccccc1 | 5.36 | – |
| O=[P@@]1(c2ccccc2)O[C@H](COCc2ccccc2)[C@@H](OCc2ccccc2)[C@H](OCc2ccccc2)[C@H]1OCc1ccccc1 | 5.28 | – |
| Cc1ccc([P@@]2(=O)O[C@H](COCc3ccccc3)[C@@H](OCc3ccccc3)[C@H](OCc3ccccc3)[C@@H]2O)cc1 | < 4.60 | – |
| COc1cccc([P@]2(=O)O[C@H](COCc3ccccc3)[C@@H](OCc3ccccc3)[C@H](OCc3ccccc3)[C@H]2O)c1 | < 4.60 | – |
| O=[P@]1(c2cccc(C(F)(F)F)c2)O[C@H](COCc2ccccc2)[C@@H](OCc2ccccc2)[C@H](OCc2ccccc2)[C@H]1O | < 4.60 | – |

| Compound | pEC50 [1] | other results |
| --- | --- | --- |
| CC(=O)O[C@@H]1[C@@H](OCc2ccccc2)[C@H](OCc2ccccc2)[C@@H](COCc2ccccc2)O[P@@]1(=O)c1ccccc1 | 4.92 | – |
| O=C(O[C@@H]1[C@@H](OCc2ccccc2)[C@H](OCc2ccccc2)[C@@H](COCc2ccccc2)O[P@@]1(=O)c1ccccc1)c1ccccc1 | < 4.60 | – |
| O=[P@@]1(c2ccccc2)O[C@H](COCc2ccccc2)[C@@H](OCc2ccccc2)[C@H](OCc2ccccc2)[C@H]1NCc1ccccc1 | 5.57 | – |
| N[C@H]1[C@@H](OCc2ccccc2)[C@H](OCc2ccccc2)[C@@H](COCc2ccccc2)O[P@@]1(=O)c1ccccc1 | 4.73 | – |
| CO[C@@H]1[C@@H](OCc2ccccc2)[C@H](OCc2ccccc2)[C@@H](COCc2ccccc2)O[P@@]1(=O)c1ccccc1 | 4.78 | – |
| O=[P@]1(c2ccccc2)C[C@@H](OCc2ccccc2)[C@H](OCc2ccccc2)[C@@H](COCc2ccccc2)O1 | 5.08 | – |
| COc1cccc([P@]2(=O)O[C@H](COCc3ccccc3)[C@@H](OCc3ccccc3)[C@H](OCc3ccccc3)[C@@H]2O)c1 | < 4.60 | – |
| Cc1cccc([P@@]2(=O)O[C@H](COCc3ccccc3)[C@@H](OCc3ccccc3)[C@H](OCc3ccccc3)[C@H]2O)c1 | < 4.60 | – |
| O=[P@@]1(c2cccc(C(F)(F)F)c2)O[C@H](COCc2ccccc2)[C@@H](OCc2ccccc2)[C@H](OCc2ccccc2)[C@@H]1O | < 4.60 | – |
| Cc1ccc([P@@]2(=O)O[C@H](COCc3ccccc3)[C@@H](OCc3ccccc3)[C@H](OCc3ccccc3)[C@H]2O)cc1 | < 4.60 | – |
| Cc1cccc([P@@]2(=O)O[C@H](COCc3ccccc3)[C@@H](OCc3ccccc3)[C@H](OCc3ccccc3)[C@@H]2O)c1 | < 4.60 | – |
| O=[P@@]1(c2cccc(F)c2)O[C@H](COCc2ccccc2)[C@@H](OCc2ccccc2)[C@H](OCc2ccccc2)[C@H]1O | < 4.60 | – |
| Cc1ccc([P@]2(=O)O[C@H](COCc3ccccc3)[C@@H](OCc3ccccc3)[C@H](OCc3ccccc3)[C@H]2O)cc1 | < 4.60 | – |
| CC(=O)O[C@H]1C(=O)[C@@]2(C)[C@H]([C@H](OC(=O)c3ccccc3)[C@]3(O)C[C@H](OC(=O)[C@H](O)[C@@H](NC(=O)c4ccccc4)c4ccccc4)C(C)=C1C3(C)C)[C@]1(OC(C)=O)CO[C@@H]1C[C@@H]2O [PACLITAXEL] | – | growth inhibition (GI) [9]: Active; Activity [14]: 28%; growth inhibition (GI) [10]: Active; Activity [15]: Dose-dependent effect; Activity [16]: Dose-dependent effect; Activity [7]: Active |
| COc1ccc([P@]2(=O)O[C@H](COCc3ccccc3)[C@@H](OCc3ccccc3)[C@H](OCc3ccccc3)[C@@H]2O)cc1 | 5.54 | – |
| O=[P@@]1(c2cccc(C(F)(F)F)c2)O[C@H](COCc2ccccc2)[C@@H](OCc2ccccc2)[C@H](OCc2ccccc2)[C@H]1O | < 4.60 | – |
| CSC(=S)O[C@@H]1[C@@H](OCc2ccccc2)[C@H](OCc2ccccc2)[C@@H](COCc2ccccc2)O[P@@]1(=O)c1ccccc1 | 4.85 | – |
| O=[P@]1(c2cccc(C(F)(F)F)c2)O[C@H](COCc2ccccc2)[C@@H](OCc2ccccc2)[C@H](OCc2ccccc2)[C@@H]1O | < 4.60 | – |
| Cc1ccc([P@]2(=O)O[C@H](COCc3ccccc3)[C@@H](OCc3ccccc3)[C@H](OCc3ccccc3)[C@@H]2O)cc1 | < 4.60 | – |
| COc1ccc([P@@]2(=O)O[C@H](COCc3ccccc3)[C@@H](OCc3ccccc3)[C@H](OCc3ccccc3)[C@@H]2O)cc1 | 4.82 | – |
| [N-]=[N+]=N[C@H]1[C@@H](OCc2ccccc2)[C@H](OCc2ccccc2)[C@@H](COCc2ccccc2)O[P@@]1(=O)c1ccccc1 | < 4.60 | – |
| O=NN(CCCl)C(=O)NCCCl [CARMUSTINE] | – | Activity [8]: Non-toxic; Activity [7]: Active; Activity [12]: Non-toxic; Activity [13]: Non-toxic |
